Experimental data published in patent US7615210B2, “Treatment of endometriosis” (Medical Research Council, priority 2003, dated 2009).
“And” between values parts separate entries of the source, which are not always exact repeats. Equal entries are not always repeated.

Test system: PK1 expression in endometrial tissue
Assay: PK1 expression in endometrial tissue incubated with progesterone, Taqman quantitative RT-PCR
Type: cell-based, human
Conditions: endometrial tissue (n=5), 1 μM progesterone, 24 hours, control ethanol; mean ± SEM; p<0.05
Procedure: RNA was extracted from endometrial biopsies obtained from across the menstrual cycle (n=35) using Tri Reagent (Sigma, Poole, UK) following the Manufacturer's instructions. RNA samples were quantified and were reverse transcribed using 5.5 mmol 1^−1 MgCl2, 0.5 mmol 1^−1 of each deoxynucleotide triphosphate (dNTP), 2.5 μmol 1^−1 random hexamers, ribonuclease inhibitor (0.4 U μl^−1) and 1.25 U μl^−1 Multiscribe reverse transcriptase (all from Applied Biosystems, Warrington, UK). RNA (400 ng) was added to each reverse transcription reaction and samples were incubated for 90 minutes at 25° C., 45 minutes at 48° C. and 5 minutes at 95° C. The reaction mix for the polymerase chain reaction (PCR) consisted of 1× mastermix, ribosomal 18S forward and reverse primers, Ribosomal 18S probe (50 nmol 1^−1; all from Applied Biosystems, Warrington, UK), forward and reverse primers for PK1, PK2, PKR1 and PKR2 (300 nmol 1^−1) and their probes (200 nmol 1^−1) (all from Biosource UK, Nivelles, Belgium). The reaction mix (48 μl) was aliquoted into tubes and 2 μl cDNA was added. Duplicate 24 μl samples plus positive and negative controls were placed in a PCR plate and wells were sealed with optical caps. […] Data were analysed and processed using Sequence Detector version 1.6.3 (Applied Biosystems, Warrington, UK) according to manufacturer's instructions. […]

CC(=O)[C@H]1CC[C@H]2[C@@H]3CCC4=CC(=O)CC[C@]4(C)[C@H]3CC[C@]12C [progesterone]
fold increase in PK1 expression compared with controls: 2.91 fold and 2.91(±0.75) fold
